Data on eleven molecules can be found in PubChem BioAssay (NCI).

Some test systems named below: CCRF-CEM leukemia; HL-60(TB) leukemia; SK-MEL-28 melanoma; SF-539 CNS; NCI-H522 lung; SW-620 colon; OVCAR-5 ovarian; NCI-H226 lung; HOP-92 NSCLC; COLO 205 colon.
Common to all, as to assay: DTP human tumour cell line panel, 48 h

Molecules are shown by their SMILES.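 Interpolation was linear, between the two tested concentrations surrounding the appropriate level; five concentrations were tested over 48 hours in 96-well plates. GI50 marks 50% less growth. TGI marks complete inhibition of growth.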

On to `O=C(Nc1ccc(F)cc1F)c1cc(I)ccc1O`, for which the GI50 is 4.05 µM in the experiment with CCRF-CEM leukemia; 3.08 µM in the experiment on HL-60(TB) leukemia; 1.93 µM in the experiment with SK-MEL-28 melanoma; 2.83 µM in the experiment with SF-539 CNS; 2.73 µM in the experiment with NCI-H522 lung; 3.39 µM with SW-620 colon. Also, the GI50 was 3.72 µM in the experiment with OVCAR-5 ovarian, 2.46 µM in the experiment on NCI-H226 lung, 1.2 µM in the experiment on HOP-92 NSCLC and 5.95 µM in the experiment on COLO 205 colon. The TGI in the experiment on CCRF-CEM leukemia was more than 100 µM; in the experiment on HL-60(TB) leukemia, 9.13 µM; in the experiment on SK-MEL-28 melanoma, 6.84 µM; in the experiment with SF-539 CNS it was 10.2 µM; in the experiment on NCI-H522 lung, 14.1 µM; in the experiment on SW-620 colon, 90.7 µM. In addition, the TGI in the experiment on OVCAR-5 ovarian was more than 100 µM; in the experiment with NCI-H226 lung, 15.8 µM; in the experiment with HOP-92 NSCLC it was 4.65 µM; with COLO 205 colon it was 21.7 µM.
For the molecule `O=C(CN1CCN(c2cc3c(cc2F)c(=O)c(C(=O)N/N=C/c2ccccc2O)cn3C2CC2)CC1)N/N=C\c1ccccc1O`, the 50% growth inhibitory concentration (GI50) in the experiment on CCRF-CEM leukemia is 0.167 µM; with HL-60(TB) leukemia, 0.36 µM; with SK-MEL-28 melanoma, 0.657 µM; with SF-539 CNS it was 0.829 µM; in the experiment with NCI-H522 lung it was 0.405 µM; in the experiment on SW-620 colon it was 0.475 µM. Moreover, the GI50 in the experiment with OVCAR-5 ovarian was 1.62 µM; with NCI-H226 lung, 3.71 µM; in the experiment on HOP-92 NSCLC it was 2.15 µM; with COLO 205 colon it was 0.371 µM. The concentration for total growth inhibition (TGI) was more than 100 µM in the experiment on CCRF-CEM leukemia; more than 100 µM with SK-MEL-28 melanoma; more than 64 µM with SF-539 CNS; more than 100 µM in the experiment with NCI-H522 lung; more than 100 µM with SW-620 colon; more than 100 µM with OVCAR-5 ovarian. The total growth inhibition concentration (TGI) with NCI-H226 lung, in the experiment with HOP-92 NSCLC and in the experiment on COLO 205 colon was more than 100 µM each time.
`COc1cc(/C=C/c2cc(/C=C/c3ccc(O)c(OC)c3)n(C(=O)Nc3ccc(F)cc3)n2)ccc1O`: the GI50 was 0.367 µM in the experiment with CCRF-CEM leukemia; 0.364 µM with HL-60(TB) leukemia; 0.912 µM with SK-MEL-28 melanoma; 0.46 µM in the experiment with SF-539 CNS; 0.25 µM in the experiment on NCI-H522 lung; 0.504 µM in the experiment with SW-620 colon. Moreover, the GI50 is 3.99 µM in the experiment on OVCAR-5 ovarian, 2.62 µM in the experiment with NCI-H226 lung, 2.12 µM in the experiment with HOP-92 NSCLC and 2.09 µM in the experiment on COLO 205 colon. Further, the TGI was determined as 9.57 µM with CCRF-CEM leukemia; 1.93 µM with HL-60(TB) leukemia; 7.84 µM in the experiment with SK-MEL-28 melanoma; 5.31 µM with SF-539 CNS; 1.21 µM in the experiment on NCI-H522 lung; 10.6 µM in the experiment with SW-620 colon. For the same molecule, the TGI came to 45 µM in the experiment on OVCAR-5 ovarian, 9.79 µM in the experiment on NCI-H226 lung, 8.07 µM in the experiment on HOP-92 NSCLC and 3.7 µM in the experiment on COLO 205 colon.
As for `CC(C)=CCCc1c(C)ccc2c1C(=O)C(=O)C(C(C)C)=C2`, the concentration for total growth inhibition (TGI) in the experiment with CCRF-CEM leukemia was 1.9 µM; with HL-60(TB) leukemia, 5.03 µM; with SK-MEL-28 melanoma, 6.92 µM; with SF-539 CNS, 8.84 µM; in the experiment on NCI-H522 lung it was 6.39 µM; with SW-620 colon, 7.05 µM. For the same molecule, the total growth inhibition concentration (TGI) was more than 22 µM with NCI-H226 lung, 6.43 µM in the experiment on HOP-92 NSCLC and more than 22 µM with COLO 205 colon.
For the molecule `O=C1c2cccnc2-c2nc(-c3ccccc3[N+](=O)[O-])cc3c2c1nc1ccccc13`, the GI50 is more than 100 µM with CCRF-CEM leukemia; more than 100 µM with HL-60(TB) leukemia; 27.6 µM with SK-MEL-28 melanoma; 6.3 µM in the experiment on SF-539 CNS; 2.1 µM in the experiment on NCI-H522 lung; 3.27 µM in the experiment on SW-620 colon. Besides, the GI50 was 6.99 µM in the experiment with OVCAR-5 ovarian, more than 100 µM with NCI-H226 lung, 8.7 µM with HOP-92 NSCLC and 24.4 µM in the experiment with COLO 205 colon. The total growth inhibition concentration (TGI) is more than 100 µM in the experiment with CCRF-CEM leukemia; more than 100 µM in the experiment on HL-60(TB) leukemia; more than 63.5 µM with SK-MEL-28 melanoma; 24.3 µM with SF-539 CNS; 6.4 µM in the experiment on NCI-H522 lung; 18.9 µM in the experiment on SW-620 colon. For the same molecule, the TGI in the experiment with OVCAR-5 ovarian was 33.4 µM; in the experiment with NCI-H226 lung, more than 100 µM; in the experiment with HOP-92 NSCLC, more than 100 µM; with COLO 205 colon, more than 62.4 µM.
Consider `NS(=O)(=O)c1ccccc1C(=O)N/N=C(\c1nc2ccc([N+](=O)[O-])cc2[nH]c1=O)C(O)c1ccc([N+](=O)[O-])cc1` (stereo unspecified), for which the TGI with CCRF-CEM leukemia was more than 100 µM; in the experiment with HL-60(TB) leukemia, more than 100 µM; in the experiment with SK-MEL-28 melanoma it was more than 100 µM; with SF-539 CNS it was more than 100 µM; with NCI-H522 lung, 59.2 µM; with SW-620 colon, more than 100 µM. Moreover, the TGI in the experiment on OVCAR-5 ovarian, in the experiment with NCI-H226 lung, with HOP-92 NSCLC and with COLO 205 colon was more than 100 µM in each case.
Consider `O=[S@@]1Nc2ccc(Br)cc2S1`, for which the total growth inhibition concentration (TGI) in the experiment on CCRF-CEM leukemia is more than 100 µM; in the experiment on HL-60(TB) leukemia it was 65.2 µM; in the experiment on SK-MEL-28 melanoma it was more than 100 µM; with SF-539 CNS it was more than 100 µM; in the experiment on NCI-H522 lung, 68.6 µM; in the experiment on SW-620 colon, more than 100 µM. The concentration for total growth inhibition (TGI) with NCI-H226 lung and in the experiment with HOP-92 NSCLC was more than 100 µM in each case.
As for `N#CC(C#N)=c1ccc(=C2NCC3CCCN23)cc1` (stereo unspecified), the TGI in the experiment with CCRF-CEM leukemia, in the experiment on HL-60(TB) leukemia, in the experiment on SF-539 CNS, with NCI-H522 lung, with SW-620 colon and in the experiment with OVCAR-5 ovarian was more than 100 µM throughout. Further, the TGI in the experiment with NCI-H226 lung, in the experiment with HOP-92 NSCLC and in the experiment on COLO 205 colon was more than 100 µM throughout.
Turning to `CC1CN1P1(N2CC2C)=NP(N2CC2C)(N2CC2C)=NP(N2CC2C)(N2CC2C)=N1` (stereo unspecified), the TGI in the experiment on CCRF-CEM leukemia, in the experiment with HL-60(TB) leukemia, with SK-MEL-28 melanoma, with SF-539 CNS, in the experiment on NCI-H522 lung and with SW-620 colon was more than 50 µM each time. Also, the TGI in the experiment on NCI-H226 lung, in the experiment on HOP-92 NSCLC and with COLO 205 colon was more than 50 µM throughout.
As for `COc1ccc(-c2cc(=O)c3ccc(O)cc3o2)c(OC)c1OC`, the TGI was more than 100 µM in the experiment on CCRF-CEM leukemia; more than 100 µM in the experiment with HL-60(TB) leukemia; more than 100 µM in the experiment on SK-MEL-28 melanoma; more than 100 µM in the experiment with SF-539 CNS; 82.8 µM in the experiment with NCI-H522 lung; more than 100 µM in the experiment with SW-620 colon. Besides, the TGI in the experiment with NCI-H226 lung, in the experiment with HOP-92 NSCLC and with COLO 205 colon was more than 100 µM each time.
Consider `CNC(=O)c1ccccc1Nc1nc(Nc2ccc(N3CCOCC3)cc2OC)ncc1Cl`, for which the GI50 in the experiment with CCRF-CEM leukemia is 0.531 µM; in the experiment with HL-60(TB) leukemia it was 0.206 µM; with SK-MEL-28 melanoma, 1.35 µM; in the experiment on SF-539 CNS, 1.29 µM; with NCI-H522 lung, 0.764 µM; in the experiment with SW-620 colon it was 0.314 µM. Further, the GI50 with NCI-H226 lung is 1.01 µM; with HOP-92 NSCLC, 0.0571 µM; with COLO 205 colon it was 0.103 µM. Moreover, the total growth inhibition concentration (TGI) was more than 81.9 µM with CCRF-CEM leukemia; more than 57.1 µM in the experiment on HL-60(TB) leukemia; more than 37.1 µM in the experiment with SK-MEL-28 melanoma; 7.68 µM with SF-539 CNS; 9.66 µM with NCI-H522 lung; more than 100 µM in the experiment with SW-620 colon. Also, the TGI is more than 74 µM in the experiment on NCI-H226 lung, 1.03 µM in the experiment on HOP-92 NSCLC and 0.59 µM in the experiment with COLO 205 colon.
